How the values were obtained:
Human TRPA1 (hTRPA1) = target: T1, Human TRPA1 (hTRPA1) (Homo sapiens, UniProt O75762); experiment: TRPA1 Activation Test 2: intracellular Ca2+ imaging assay 2-1 to 2-3, hTRPA1 stably expressing cell line; format: cell-based; settings: for TRPA1 activation rate: Table 7; for TRPA1 activation rate, With antagonist: A-967079 1 μM; for TRPA1 activation rate, With antagonist / TRPA1 activation rate, Without antagonist: Table 8
T1 construct: expressed in transfected cells
Method: (§1) DNAs encoding genes described in the following Table 2 were inserted into pcDNA 5/TO vector (Invitrogen) to prepare various expression vectors.
(§2) These expression vectors were transfected into T-REx™_293 cells (Invitrogen) by a conventional method using Lipofectamine LTX (Invitrogen). Then, various transfectants were cultured and cloned by a conventional method using Dulbecco's Modified Eagle Medium (DMEM, Nacalai Tesque Inc.), containing 10% fetal bovine serum (FBS, Cytiva), […] of hygromycin B, and 5 μg/mL of blasticidin S, as a drug selection medium to obtain a hTRPA1 stably expressing cell line, a hTRPV1 stably expressing cell line, and a hTRPM8 stably expressing cell line.
(§3) A hTRPA1 stably expressing cell line in which expression of hTRPA1 had been induced in advance by a conventional method was prepared in a 96 well clear bottom plate, and the hTRPA1 activating action of rhein (produced by Tokyo Chemical Industry Co., Ltd.) was tested. Specifically, after each well was washed with PBS, 50 μL of an assay buffer (Hanks' balanced salt solution containing no calcium ion or magnesium ion that contained 1 mM of CaCl2 dihydrate, 20 mM of HEPES, and 0.1% BSA) containing calcium fluorescent indicator Calbryte™ 520 AM (produced by AAT Bioquest) in a final concentration of 4 μM was added, followed by incubating at 33° C. for 45 minutes. After washing with the assay buffer, 100 μL of the assay buffer was added to each well. This plate was set to FlexStation 3 (Molecular Devices, LLC), and a fluorescence intensity (excitation wavelength 490 nm, fluorescence wavelength 525 nm) at 31° C. was measured every two seconds, and 30 seconds after the start of the measurement, 100 μL of an assay buffer containing a test sample (allyl isothiocyanate (AITC) of positive control or rhein) which was prepared to have a certain final concentration or DMSO was added. Then, a well in which an assay buffer containing ionomycin (having a final concentration of 10 μM after the addition) instead of the test samples was added was also prepared as a reference for fluorescence intensity.
(§4) The measurement was continued from the start of the measurement up to 120 seconds, and the TRPA1 activation ability of the test samples was calculated in accordance with the following formula.
(§5) Activation rate (%)=(Fmax[s]−F0)/(Fmax[i]−F0)×100 • Fmax[s]: The maximum value of the fluorescence intensity when the test sample or positive control was added • F0: The average value of the fluorescence intensity for 20 seconds after the start of the measurement (base line) • Fmax[i]: The maximum value of the fluorescence intensity when ionomycin was added
(§6) The TRPA1 activation ability of each test sample was measured in the same manner as in the above (2) except the test was conducted with A-967079 (1 μM), which is a TRPA1-specific antagonist, or without A-967079. In addition, intracellular Ca^2+ imaging assay was conducted in the same manner as in the above (2) except that a hTRPV1 stably expressing cell line, a hTRPM8 stably expressing cell line, or a Mock cell was used instead of the hTRPA1 stably expressing cell line. Note that capsaicin was used as positive control for the hTRPV1 stably expressing cell line, and icilin was used as positive control for the hTRPM8 stably expressing cell line.
A TRPA1 activation ability was measured in the same manner as in the above (2) by using, as a test sample, rhein or compounds described in the following Table 10, which had anthraquinone structures similar to rhein, at a concentration of 200 μM of the test sample.

Human TRPM8 (hTRPM8) = target: T2, Human TRPM8 (hTRPM8) (Homo sapiens, UniProt Q7Z2W7); experiment: TRPA1 Activation Test 2: intracellular Ca2+ imaging assay 2-2, hTRPM8 stably expressing cell line; format: cell-based; settings: for TRPM8 activation rate: Table 9
T2 construct: expressed in transfected cells
Method: as §1, §2
as §3, with “This plate was set to FlexStation 3 (Molecular Devices, LLC), and a fluorescence intensity (excitation wavelength 490 nm, fluorescence wavelength 525 nm) at 31° C. was measured every two seconds, and 30 seconds after the start of the measurement, 100 μL of an assay buffer containing a test sample (allyl isothiocyanate (AITC) of positive control or rhein) which was prepared to have a certain final concentration or DMSO was added.” left out
as §4, §5
as §6, with “Note that capsaicin was used as positive control for the hTRPV1 stably expressing cell line, and icilin was used as positive control for the hTRPM8 stably expressing cell line.” left out

[1] = Anorexia Improving Test 3: cumulative amounts of food ingested of mice, rhein with or without A-967079; format: in vivo; settings: oral; for Cumulative amounts of food ingested of mice: rhein 100 μmol/kg body weight, A-967079 10 μmol/kg body weight
Method: Male ICR mice were housed in individual cages in which ALPHA-dri (Shepherd Specialty Papers) was laid, and were acclimatized and raised for at least one week or more while a powder feed (CE-2, CLEA Japan, Inc.) was given to the mice by using a powder feeder for mice (SN-950, Shinano Manufacturing Co., Ltd.). Then, for several days before the experiment, handling and oral administration training using a feeding needle (FG4202, Fuchigami Kikai Co., Ltd.) were conducted every day. To 9 week-old mice under ad libitum feeding conditions, a carrier solution (containing 2% of dimethyl sulfoxide and 98% of a 0.5% methyl cellulose solution in volume ratio) or a rhein solution (obtained by dissolving 8.53 mg of rhein in 1 mL of the carrier solution) was orally administered from 9:20 a.m. (10 mL/kg body weight). The dosage of rhein was 300 μmol/kg body weight in terms of molar concentration. Then, a feeder the mass of which had been measured in advance was set in the cage at 9:30 a.m. The masses of the feeder and the feed spilled in the cage 0.5, 1, 2, and 3 hours after the start of the feeding experiment were measured, and the ingested mass (g) at each time was measured (n=6). The ingested mass (g) of each mouse was measured in the same manner as in anorexia improving test 2 (the above item 5) except that 10 mL/kg body weight of a carrier solution, a rhein solution (100 μmol/kg body weight), an A-967079 solution (10 μmol/kg body weight), or a mixed solution of A-967079 and rhein (in 10 μmol/kg body weight and 100 μmol/kg body weight, respectively) was orally administered to the mouse. Results obtained by calculating the cumulative amounts of food ingested and conducting a multiple comparison (multiple t-test) by the Dunn-Bonferroni method are shown in Table 12.

T1 sequence (O75762 whole entry): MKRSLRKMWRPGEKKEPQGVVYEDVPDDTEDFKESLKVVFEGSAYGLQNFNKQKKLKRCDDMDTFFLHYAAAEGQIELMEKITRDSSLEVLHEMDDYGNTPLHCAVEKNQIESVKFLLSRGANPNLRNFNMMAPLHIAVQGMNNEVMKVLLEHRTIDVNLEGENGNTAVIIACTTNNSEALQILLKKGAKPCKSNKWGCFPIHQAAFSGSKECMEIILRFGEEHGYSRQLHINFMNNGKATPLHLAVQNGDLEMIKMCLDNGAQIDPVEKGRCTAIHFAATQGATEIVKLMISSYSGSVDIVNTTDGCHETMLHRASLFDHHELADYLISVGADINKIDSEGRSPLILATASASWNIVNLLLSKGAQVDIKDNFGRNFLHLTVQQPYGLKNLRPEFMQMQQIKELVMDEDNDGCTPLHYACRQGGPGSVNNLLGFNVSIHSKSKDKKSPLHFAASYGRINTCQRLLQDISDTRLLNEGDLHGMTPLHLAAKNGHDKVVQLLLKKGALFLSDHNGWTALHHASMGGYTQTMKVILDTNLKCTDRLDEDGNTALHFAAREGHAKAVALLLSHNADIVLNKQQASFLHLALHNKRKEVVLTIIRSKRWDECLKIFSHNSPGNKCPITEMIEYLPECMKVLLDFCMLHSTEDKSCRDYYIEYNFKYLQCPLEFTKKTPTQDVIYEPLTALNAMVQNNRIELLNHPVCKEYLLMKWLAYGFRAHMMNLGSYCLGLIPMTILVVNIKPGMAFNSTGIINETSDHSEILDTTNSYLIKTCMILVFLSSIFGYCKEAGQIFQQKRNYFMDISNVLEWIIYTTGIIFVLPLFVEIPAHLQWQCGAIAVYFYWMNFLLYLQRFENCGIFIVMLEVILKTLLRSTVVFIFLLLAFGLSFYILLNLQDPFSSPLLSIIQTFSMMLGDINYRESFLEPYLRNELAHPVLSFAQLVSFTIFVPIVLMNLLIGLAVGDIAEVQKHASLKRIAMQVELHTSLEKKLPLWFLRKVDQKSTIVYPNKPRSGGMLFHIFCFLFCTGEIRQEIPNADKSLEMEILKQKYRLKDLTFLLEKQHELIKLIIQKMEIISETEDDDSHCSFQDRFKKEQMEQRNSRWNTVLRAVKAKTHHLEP
T2 sequence (Q7Z2W7 whole entry): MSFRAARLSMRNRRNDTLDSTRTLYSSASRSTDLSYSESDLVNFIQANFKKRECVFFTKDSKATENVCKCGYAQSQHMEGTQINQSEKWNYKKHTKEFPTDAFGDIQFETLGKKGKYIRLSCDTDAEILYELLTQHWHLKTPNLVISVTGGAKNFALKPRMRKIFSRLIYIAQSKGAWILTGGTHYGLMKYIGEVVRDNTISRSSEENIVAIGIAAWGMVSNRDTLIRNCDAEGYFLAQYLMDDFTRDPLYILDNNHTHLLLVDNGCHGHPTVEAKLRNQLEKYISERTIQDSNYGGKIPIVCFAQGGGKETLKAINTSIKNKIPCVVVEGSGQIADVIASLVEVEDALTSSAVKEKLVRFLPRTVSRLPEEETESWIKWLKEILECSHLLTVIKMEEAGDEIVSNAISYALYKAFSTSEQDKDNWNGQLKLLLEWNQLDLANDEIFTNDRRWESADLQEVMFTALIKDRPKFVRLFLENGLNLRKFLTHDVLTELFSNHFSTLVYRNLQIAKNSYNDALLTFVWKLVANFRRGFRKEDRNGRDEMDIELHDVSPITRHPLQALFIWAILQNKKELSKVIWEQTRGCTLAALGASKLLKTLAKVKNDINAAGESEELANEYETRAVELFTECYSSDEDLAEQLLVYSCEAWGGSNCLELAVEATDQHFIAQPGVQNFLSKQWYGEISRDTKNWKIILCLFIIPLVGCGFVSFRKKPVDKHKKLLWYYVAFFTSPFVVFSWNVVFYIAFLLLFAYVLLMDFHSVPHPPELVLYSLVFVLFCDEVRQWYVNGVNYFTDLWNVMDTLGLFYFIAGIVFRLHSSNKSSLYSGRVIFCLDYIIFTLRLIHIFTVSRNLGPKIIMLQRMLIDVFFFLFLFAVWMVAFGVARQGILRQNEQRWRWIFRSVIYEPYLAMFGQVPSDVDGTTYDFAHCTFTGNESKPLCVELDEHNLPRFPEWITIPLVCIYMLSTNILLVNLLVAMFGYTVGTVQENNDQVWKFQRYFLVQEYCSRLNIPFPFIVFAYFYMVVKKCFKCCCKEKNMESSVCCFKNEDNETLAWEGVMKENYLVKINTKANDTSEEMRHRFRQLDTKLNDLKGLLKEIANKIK

TRPA1 activation rate (Human TRPA1 (hTRPA1); test sample 1 μM): 0.57 ± 0.0414%
TRPA1 activation rate (Human TRPA1 (hTRPA1); test sample 10 μM): 19.1 ± 1.00%
TRPA1 activation rate (Human TRPA1 (hTRPA1); test sample 25 μM): 41.1 ± 1.51%
TRPA1 activation rate (Human TRPA1 (hTRPA1); test sample 50 μM): 66.4 ± 1.45%
TRPA1 activation rate (Human TRPA1 (hTRPA1); test sample 75 μM): 69.7 ± 1.25%
TRPA1 activation rate, With antagonist (Human TRPA1 (hTRPA1); test sample 100 μM): 3.26 ± 0.102 %
TRPA1 activation rate (Human TRPA1 (hTRPA1); test sample 100 μM): 75.5 ± 1.19%
TRPA1 activation rate, Without antagonist (Human TRPA1 (hTRPA1); test sample 100 μM): 79.4 ± 4.08%
TRPA1 activation rate, With antagonist (Human TRPA1 (hTRPA1); test sample 200 μM): 8.40 ± 0.238 %
TRPA1 activation rate (Human TRPA1 (hTRPA1); test sample 200 μM): 85.7 ± 1.62%
TRPA1 activation rate, Without antagonist (Human TRPA1 (hTRPA1); test sample 200 μM): 82.1 ± 0.918%
TRPA1 activation rates (Human TRPA1 (hTRPA1); test sample 200 μM, Table 10): 85.7 ± 1.62%
TRPM8 activation (in words) (Human TRPM8 (hTRPM8); hTRPM8 stably expressing cell line): not activated
TRPM8 activation rate (Human TRPM8 (hTRPM8); test sample 100 μM): 2.52 ± 0.0847%
TRPM8 activation rate (Human TRPM8 (hTRPM8); test sample 200 μM): 5.71 ± 0.118%
Structure (SMILES): O=C(O)c1cc(O)c2c(c1)C(=O)c1cccc(O)c1C2=O [Rhein, rhein]
TRPA1 activating action with TRPA1-specific antagonist (in words) (Human TRPA1 (hTRPA1); A-967079): inhibited by the TRPA1-specific antagonist
TRPA1 activating action (in words) (Human TRPA1 (hTRPA1); hTRPA1 stably expressing cell line): activated TRPA1 in concentration dependent manner
Cumulative amounts of food ingested of mice ([1]; 0.5 hour after the administration): 0.21 ± 0.033 g
Cumulative amounts of food ingested of mice ([1]; 1 hour after the administration): 0.25 ± 0.027 g
Cumulative amounts of food ingested of mice ([1]; 2 hours after the administration): 0.42 ± 0.020 g
Cumulative amounts of food ingested of mice ([1]; 3 hours after the administration): 0.49 ± 0.035 g
Significant increase in the cumulative amounts of food ingested where A-967079 was administered (in words) ([1]; rhein 100 μmol/kg with A-967079 10 μmol/kg): not observed

Reference: patent US20250009697A1, “COMPOSITION FOR INCREASING AMOUNT OF FOOD INGESTED AND/OR IMPROVING ANOREXIA, AND COMPOSITION FOR ACTIVATING TRANSIENT RECEPTOR POTENTIAL ANKYRIN 1” (HOUSE FOODS GROUP INC., priority 2021, published 2025)
